Data: patent US10576086B2, “Triazine derivatives as interferon-gamma inhibitors” (University of Greenwich, priority 2015, dated 2020)

Tested on: IFN-γ production in human peripheral blood mononuclear cells (PBMCs)
Assay: Experiment 2: IFN-γ production by PHA-stimulated human PBMCs, ELISA
Assay type: cell-based
Conditions: for [IFN-γ]: PHA 5 μg/ml
Description: A similar set of tests were carried out, in which three compounds known as CEN-079(3,5-diamino-6-[2-(3,4,5-trichlorothienyl)]-1,2,4-triazine), CEN-092(3,5-diamino-6-(3,5-bistrifluoromethylphenyl)-1,2,4-triazine) and CEN-216(3,5-diamino-6-(2,3-dichlorophenyl)-2,3(2,5)-dihydro-3(5)-imino-2-(2,2,2-trichloroethyl)-1,2,4-triazine) were compared with lamotrigine. CEN-079, CEN-092 and CEN-216 are within the scope of Formulae 1, 2 and 3.
50 ml of blood from three healthy adult donors was collected by venepuncture in heparinised tubes. The blood samples where centrifuged at 3000 rpm for 15 minutes. The supernatant plasma was collected in a centrifuge tube, and centrifuged at 3000 rpm for a further 10 minutes. The supernatant was then collected in a plain tube, and stored at −70° C. for future use.
The cells from the first centrifuged heparinised tube were diluted 1:1 in RPMI-1640, and mixed by multiple inversions. The cell mixture was then slowly layered, using a sterile plastic 3 ml pipette, along a tube wall containing lymphoprep (Nycomed) at a ratio of 2:1 cells/RPMI-1640:Lymphoprep in a 25 ml universal tube. The mixture was centrifuged at 2400 rpm for 30 minutes, and left to stand for 20 minutes. PBMCs were slowly removed from the interface using a sterile plastic pipette, and collected in a 15 ml centrifuge tube.
The cells were washed twice by diluting in RPMI-1640 with 2 mM L-glutamine, 100 U/ml penicillin and 100 μg/ml streptomycin at a ratio of 1:1. The mixture was centrifuged at 3000 rpm for 15 minutes, and the supernatant decanted. PBMCs were then diluted in RPMI-1640 containing 2 mM L-glutamine, 100 U/ml penicillin and 100 μg streptomycin, to make up a volume of 6 ml for subjects 1 and 2, and 9 ml for subject 3.
Cells were counted using an Improved Neubauer haemocytometer (Hawksley, UK) on a light microscope. 10 μl of cell suspension was loaded onto the haemocytometer using a sterile plastic pipette. Cells were counted in five out of 25 1 mm squares, from which the total cell count was calculated.
5 μg/ml PHA was used as a T cell activating agent for the production of IFN-γ. The PBMCs were treated with the four test compounds (lamotrigine, CEN-079, CEN-092, CEN-216) at concentrations of 10 μM, 30 μM and 300 μM to assess their effects on IFN-γ production by the stimulated T cells.
The tests were carried out as for Experiment 1, in which 2×10^6 PBMC/ml, 25 μl of 5% autologous plasma, and 2.63 μl of 5 μg/ml PHA were used. Test compound at each concentration was then added, except for one control case.
10 μM solutions were obtained by adding 1.05 μl of a 5 mM solution of the compounds to the above PBMC-containing solution. 30 μM solutions were obtained by adding 3.15 μl of the 5 mM solution of the compounds. 300 μM solutions were obtained by adding […] solutions of the compounds.
The tubes were covered, gently shaken to mix the contents, and incubated for 24 hours at 37° C. The tubes were then centrifuged at 2500 rpm for 10 minutes. The supernatant was collected in a 3 ml plastic pipette, and aliquots were stored at −70° C. before being analysed.
The test was performed according to the supplier's instructions. Donor samples were diluted 1:1 in phosphate buffered […] (PBS) and assayed simultaneously with IFN-γ standard samples, in duplicate. The standard curve ranged from 15.6 pg/ml to 1000 pg/ml.
A 96-well multiwell microplate (high binding Costar) was prepared, by diluting a capture antibody (720 μg/ml of mouse anti-human IFN-γ) in PBS to a working concentration of 4.0 μg/ml. 100 μl was immediately coated on each well, and left overnight at room temperature. The wells were washed three times in wash buffer, using microplate autowasher (LT-3000, LabTech International Ltd). The remainder of the wash buffer in the wells was removed by blotting on to clean paper towels. The plate was blocked by adding 300 μl Block buffer (1% BSA in PBS) to each well and incubated at room temperature for 1 hour. […]

Which results are given for `Nc1nnc(-c2cccc(Cl)c2Cl)c(N)n1` [Lamotrigine, 3,5-diamino-6-(2,3-dichlorophenyl)-1,2,4-triazine]?
[IFN-γ] vs control (10 μM, Subject 1, 24 h): 104.7%; [IFN-γ] (10 μM, Subject 1, 24 h): 732 pg/mL; [IFN-γ] vs control (10 μM, Subject 2, 24 h): 78.6%; [IFN-γ] (10 μM, Subject 2, 24 h): 1591.5 pg/mL; [IFN-γ] vs control (10 μM, Subject 3, 24 h): 74.8%; [IFN-γ] (10 μM, Subject 3, 24 h): 1590.0 pg/mL; [IFN-γ] vs control (30 μM, Subject 1, 24 h): 65%; [IFN-γ] (30 μM, Subject 1, 24 h): 454 pg/mL; [IFN-γ] vs control (30 μM, Subject 2, 24 h): 69.1%; [IFN-γ] (30 μM, Subject 2, 24 h): 1400.5 pg/mL; [IFN-γ] vs control (30 μM, Subject 3, 24 h): 39.2%; [IFN-γ] (30 μM, Subject 3, 24 h): 833.0 pg/mL; [IFN-γ] vs control (300 μM, Subject 1, 24 h): 8.5%; [IFN-γ] (300 μM, Subject 1, 24 h): 59.5 pg/mL; [IFN-γ] vs control (300 μM, Subject 2, 24 h): 10.6%; [IFN-γ] (300 μM, Subject 2, 24 h): 215.0 pg/mL; [IFN-γ] vs control (300 μM, Subject 3, 24 h): 8.7%; [IFN-γ] (300 μM, Subject 3, 24 h): 186.0 pg/mL; inhibition of IFN-γ production in PBMCs (in words) (Experiment 2, human PBMCs): shown to be an inhibitor of IFN-γ production in PBMCs; IC50 (PBMC, human PBMCs, PHA-stimulated, read-out: IC50 (concentration to inhibit IFN-γ production by 50%)): 43 µM
